# Read-outs that look alike come from different tables or passages of the source. Where a SMILES comes first, the peptide text is derived from it. Where no end group is shown, it is not given here. The star is where a group is joined. Propanoyl(2-F) = CC(F)C(=O)*
# What was measured:
# [1] = tested on: 22B tumor; conditions: Bevacizumab-treated mice, 4T1 and 22B in the same animal
# [2] = tested on: human umbilical vein endothelial cells (HUVEC); conditions: 48 h incubation, various concentrations
# Experimental: (§1) Toxicity of AVP on Cell Viability by MTT Assay: MTT (3-(4,5-dimethylthiazolyl-2)-2,5-diphenyltetrazolium bromide; ATCC) assays were used to measure cell viability. Three thousand tumor cells or HUVECs were seeded per well in a 96-well plate and allowed to incubate for 24 h. After incubation with various concentrations of peptide AVP for 48 h, 10 μl of MTT reagent was added to each well. Four hours later, when the purple precipitate became visible, the supernatant was discarded, and 100 μl of DMSO was added to each well and the plate was shaken in the dark for 10 min at room temperature. The absorbance at 570 nm was then measured using a microplate reader (Tecan).
# [3] = tested on: LS174T human colorectal cancer cells; conditions: 48 h incubation, various concentrations
# Experimental: as §1
# [4] = tested on: 4T1 murine breast cancer cells; conditions: 4T1, 48 h incubation, various concentrations
# Experimental: as §1
# [5] = tested on: 4T1 tumor; conditions: Bevacizumab-treated mice
# [6] = tested on: tumor that responds to the anti-angiogenic drug ZD4190 therapy; conditions: ZD4190-treated
# Source text: Two-dimensional NIR fluorescence images were acquired at various time points after injection using a Maestro in vivo imaging system (CRI, Woburn, Mass.; IRdye800 excitation=735 nm, emission=780 nm long pass).
# [7] = tested on: LS174T tumor; conditions: Bevacizumab-treated mice
# [8] = for metabolic stability in vivo: urine after 1 hr
# Experimental: Metabolic Stability of AVP Peptide: Nude mice bearing LS174T tumor xenografts were intravenously injected with 3.7 MBq of ^18F-FP-AVP. Urine samples were collected 1 h after tracer injection and analyzed by HPLC.
# Radiochemistry: Semi-preparative reversed-phase high performance liquid chromatography (RPHPLC) using a Vydac protein and peptide column (218TP510; 5 μm, 250×10 mm) was performed on a Dionex 680 chromatography system with a UVD 170U absorbance detector and model 105S single-channel radiation detector (Carroll & Ramsey Associates). The recorded data were processed using Chromeleon version 6.50 software. With a flow rate of 5 ml/min, the mobile phase was changed from 95% solvent A [0.1% trifluoroacetic acid (TFA) in water] and 5% B [0.1% TFA in acetonitrile] (0-2 min) to 35% solvent A and 65% solvent B at 32 min. […] C18 Sep-Pak cartridges (Waters) were pretreated with ethanol and water before use.
# [9] = tested on: LS174T tumor; conditions: mouse, in vivo
# Experimental: The 4T1 cells were harvested from the tumor and suspended in sterile PBS at a concentration of 2×10^7 viable cells/mL.
# Tumor Growth Study: When palpable tumors (150-200 mm^3) were present in all animals, mice were randomly divided into two groups (n=10/group). Cancer therapy response was evaluated in LS174T human colorectal cancer, 4T1 murine breast cancer and 22B human head-neck cancer models. […] The mouse body weight and tumor volume were measured every 3 days for up to 20 days before euthanasia.
# Small Animal PET Imaging: A detailed procedure for positron emission tomography (PET) imaging has been reported earlier (Li et al., (2008) J. Nucl. Med. 49: 453-461). Briefly, PET scans were performed using a microPET R4 rodent model scanner (Siemens Medical Solutions). […] The images were reconstructed by a two-dimensional ordered subsets expectation maximum (OSEM) algorithm with no attenuation or scatter correction. For each microPET scan, regions of interest (ROIs) were drawn over the tumor by using vendor software ASI Pro 5.2.4.0 on decay corrected whole-body coronal images. Assuming a tissue density of 1 g/ml, the ROIs were converted to MBq/g/min using a conversion factor, and then divided by the administered activity to obtain an imaging ROI-derived percent injected dose per gram (% ID/g).
# [10] = tested on: LS174T human colorectal cancer; test: Tumor growth study; type: in vivo, mice
# Experimental: Animal Models: Female athymic nude mice (nu/nu) were obtained from Harlan (Indianapolis, Ind.) at 6-8 weeks of age and were kept under sterile conditions. The LS174T or 22B cells were harvested and suspended in sterile PBS at a concentration of 5×10^7 viable cells/ml. Viable tumor cells (5×10^6) in sterile PBS (100 μL) were injected subcutaneously into the right shoulder. […] Tumor growth was followed by caliper measurements of perpendicular measures of the tumor. The tumor volume was estimated by the formula: tumor volume=a×(b2)/2, where a and b were the tumor length and width respectively in mm.
molecule,measurement,setting,value
LLADTTHHRPWT [AVP],concentration in 22B tumor,[1],is concentrated
same,effect on cells (MTT),[2],little effect
same,effect on cells (MTT),[3],little effect
same,effect on cells (MTT),[4],little effect
same,concentration in / binding to 4T1 tumor,[5]; listed as AVP peptide,no binding
same,concentration in / binding to 4T1 tumor,[5]; listed as Bevacizumab (AVASTIN™)-responsive peptide,not concentrated
same,concentration in tumor responding to ZD4190 therapy,[6],concentrated
same,concentration in LS174T tumor,[7],is concentrated
CC(C)C[C@H](NC(=O)C(C)F)C(=O)N[C@@H](CC(C)C)C(=O)N[C@@H](C)C(=O)N[C@@H](CC(=O)O)C(=O)N[C@H](C(=O)N[C@H](C(=O)N[C@@H](Cc1c[nH]cn1)C(=O)N[C@@H](Cc1c[nH]cn1)C(=O)N[C@@H](CCCNC(=N)N)C(=O)N1CCC[C@H]1C(=O)N[C@@H](Cc1c[nH]c2ccccc12)C(=O)N[C@H](C(=O)O)[C@@H](C)O)[C@@H](C)O)[C@@H](C)O (some centres unmarked) [18F-FP-AVP] ({Propanoyl(2-F)}-LLADTTHHRPWT-OH),metabolic stability in vivo,[8],good metabolic stability
same,metabolic stability in vivo,[8]; listed as 18F-labeled Bevacizumab (AVASTIN™)-responsive peptide,minimal degradation or metabolism
same,intact tracer in urine,"[8]; urine sample 1 h after i.v. injection, HPLC",about 90%
same,"microPET tumor uptake, Avastin treated versus control PBS treated tumors",[9],significantly higher uptake
Bevacizumab (AVASTIN™): recombinant humanized monoclonal IgG1 antibody that binds human VEGF,additional time after imaging until statistically significant change in tumor volume versus saline control,"[10]; LS174T and 22B tumor models, imaging on fifth day of treatment",5 to 6 days
same,difference in tumor volume between treatment and control groups,"[10]; fifth day following the start of treatment, 1 day after three doses",no difference

# Source: patent US20100260673A1, “PHAGE DISPLAY PEPTIDE PROBES FOR IMAGING EARLY RESPONSES TO ANTIANGIOGENIC TREATMENT” (priority 2009, published 2010)
